pEC50: −log10 of the molar value.
Columns and labels:
CYP3A4 = biological target: T1, CYP3A4 (Homo sapiens, UniProt P08684); test: CYP450 Inhibition Assay 2 (pooled human liver microsomes, 5 concentrations); format: in vitro ADME; conditions: Table 3, HLM 0.05 mg protein/mL, 10 min reaction; for IC50 at 10 min: human, pooled human liver microsomes
T1 construct: from tissue; host or cells: pooled human liver microsomes
Experimental: In an alternative experimental design, test compounds were evaluated at 5 concentrations in a 96 well assay plate. Initial combination with pooled human liver microsomes (0.05 mg protein/mL) was followed by a 5 minute incubation. […] The assay plate was incubated for an additional 30 minutes before the reaction was initiated with the addition of NADPH. After 10 minutes of reaction time, the reaction was quenched and samples were analyzed in a similar manner as described above.

[1] = tested on: Q7 cells (ST HDH Q7/7; immortalized mouse striatal cells); test: Q7 Cystine Deprivation cell survival (rescue) assay; format: cell-based; conditions: Q7 cells, cystine-free medium, 18 h, Cell Titer Glo, 50% relative viability vs Vitamin K2 (1 micromolar), read-out: Q7 Cystine Deprivation Survival EC50
Outline: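 Cells were seeded at 3,000/well and allowed to attach for 5 h at 33 °C. Wells were then washed twice with PBS and switched to cystine-free DMEM containing FBS, 4 mM L-glutamine, 1 mM pyruvate and 30 mg/L methionine to induce ferroptotic death. Compounds were scored for survival rescue.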

[2] = tested on: Q7 cells (ST HDH Q7/7; immortalized mouse striatal cells); test: Q7 RSL3 challenge cell survival (rescue) assay; format: cell-based; conditions: Q7 cells, RSL3 2 micromolar, 18 h, Cell Titer Glo, read-out: Q7 RSL3 Survival EC50
Text: In neuronal cells excess extracellular glutamate inhibits the cystine/glutamate antiporter leading to intracellular cysteine depletion, GSH depletion, reactive oxygen species (ROS) production and cell death, a phenomenon termed oxidative glutamate toxicity, oxytosis, or ferroptosis. […] Q7 cells (ST HDH Q7/7; immortalized mouse striatal cells) challenged with cystine-free media or the selective, irreversible GPX4 inhibitor, methyl (1S,3R)-2-(2-chloroacetyl)-1-(4-(methoxycarbonyl)phenyl)-2,3,4,9-tetrahydro-1H-pyrido[3,4-b]indole-3-carboxylate (hereafter referred to as RSL3), recapitulate this phenotype, as do normal human fibroblasts (NHF) challenged with RSL3. An initial screen was performed to identify compounds effective in rescuing Q7 and/or NHF cells from death resulting from cystine deprivation or RSL3 challenge. This method is further described in Yonezawa et al., J. Neurochem 67, 566-573 (1996), Li et al., J Neurosci., 23, 5816-5826 (2003), Yang and Stockwell, Chem Biol., 15: 234-45 (2008), and Yang et al., Cell 156, 317-331 (2014). See also Hinman A, Holst C R, Latham J C, et al. Vitamin E hydroquinone is an endogenous regulator of ferroptosis via redox control of 15-lipoxygenase. PLoS One. 2018; 13(8):e0201369. Published 2018 Aug. 15. doi:10.1371/journal.pone.0201369; and Kahn-Kirby A H, Amagata A, Maeder C I, et al. Targeting ferroptosis: A novel therapeutic strategy for the treatment of mitochondrial disease-related epilepsy. PLoS One. 2019; 14(3):e0214250. Published 2019 Mar. 28. doi:10.1371/journal.pone.0214250.
DMEM (Catalog no. 11995-040), DMEM without Cystine (Catalog no. 21013-024), DMEM without Glucose (Catalog A1443001), PBS (Phosphate buffered saline), Penicillin-streptomycin mix, L-Glutamine, Glucose, Phenol Red, and Pyruvate were purchased from ThermoFisher Scientific (Gibco). Fetal Bovine Serum was obtained from Mediatech, Inc., or Sigma Aldrich. Mouse striatum derived ST HDH Q7/7 (Q7) and normal human skin fibroblast (NHF, product number GM21811) cells were obtained from the Coriell Institute. Methionine and Vitamin K2 were purchased from Sigma Aldrich. RSL3 was synthesized as previously described (see e.g. US Patent Publication US2010/0081654). Cell Titer Glo 2.0 was purchased from Promega. Q7 cell culture medium (Q7 growth medium) was made by combining 50 mL Fetal Bovine Serum, 100 U/mL penicillin, and 100 microgram/mL streptomycin; DMEM was added to make the volume up to 500 mL. Assay medium for the Cystine Deprivation assay was prepared by combining 50 mL Fetal Bovine Serum, 100 U/mL penicillin, 100 microgram/mL streptomycin, 4 mM L-Glutamine, 1 mM Pyruvate and 30 mg/L Methionine; DMEM without Cystine was added to make the volume up to 500 mL. NHF cell culture medium (NHF growth medium) was made by combining 50 mL Fetal Bovine Serum, 100 U/mL penicillin, 100 microgram/mL streptomycin, 2.8 mL 20% Glucose solution (final concentration 6 mM), L-glutamine (final concentration 2 mM), phenol red (final concentration 15 mg/L); DMEM without Glucose was added to make the volume up to 500 mL. Assay medium for the RSL3 challenge assay was identical to Growth medium. While not in use during the course of the experiments, these solutions were stored at 4° C. The cells were grown in 150-cm^2 tissue culture-treated flasks. Every third or fourth day, the cells were sub-cultured by trypsinization and re-seeded at a cell density of 600,000 (Q7) or 300,000 (NHF) cells per flask.
Q7 or NHF cells were cultured routinely as described herein. For 384-well cell survival assays, cells were seeded in clear bottom, black wall 384-well tissue culture-treated polystyrene plates by re-suspending a cell suspension at a density of 50,000 cells/mL in growth medium, then dispensing 60 microliters of cell suspension per well using either an electronic multichannel pipette or a Multidrop™ Combi Reagent Dispenser (ThermoFisher Scientific), corresponding to 3,000 cells/well. […]

[3] = tested on: normal human fibroblasts (NHF, GM21811); test: NHF GM21811 RSL3 challenge cell survival (rescue) assay; format: cell-based; conditions: Fibroblast, NHF cells, RSL3 2 micromolar, 48 h, Cell Titer Glo, read-out: NHF GM21811 RSL3 Survival EC50
Outline: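 Q7 (33° C.) or NHF (37° C.) cells, 3,000/well, attached 5 h, then test compounds at varying final concentrations followed within 15 min by RSL3 (2 micromolar final); 0.3% DMSO. Assay medium identical to growth medium.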

T1 sequence (P08684 whole entry): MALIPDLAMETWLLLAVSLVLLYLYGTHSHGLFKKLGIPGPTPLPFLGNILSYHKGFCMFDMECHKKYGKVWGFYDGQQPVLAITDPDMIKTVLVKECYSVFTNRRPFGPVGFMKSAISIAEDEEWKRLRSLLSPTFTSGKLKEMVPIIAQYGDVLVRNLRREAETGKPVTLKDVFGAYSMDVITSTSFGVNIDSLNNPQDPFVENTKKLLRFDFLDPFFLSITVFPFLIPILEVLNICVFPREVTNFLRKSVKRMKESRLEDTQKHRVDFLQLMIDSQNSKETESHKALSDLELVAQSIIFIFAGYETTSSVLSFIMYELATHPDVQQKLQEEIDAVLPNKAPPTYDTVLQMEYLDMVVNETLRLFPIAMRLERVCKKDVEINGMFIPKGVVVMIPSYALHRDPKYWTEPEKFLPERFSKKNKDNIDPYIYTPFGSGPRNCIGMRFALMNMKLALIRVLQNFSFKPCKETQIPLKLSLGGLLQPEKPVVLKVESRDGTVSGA

| SMILES | IC50 at 10 min (CYP3A4) | IC50 (CYP3A4) | pEC50 [1] | pEC50 [2] | pEC50 [3] |
| --- | --- | --- | --- | --- | --- |
| CC1(CCC2=C(Cc3ccc(C(F)(F)F)cn3)C(=O)c3ccccc3C2=O)COC1 [Example 32, 2-(2-(3-methyloxetan-3-yl)ethyl)-3-((5-(trifluoromethyl)pyridin-2-yl)methyl)naphthalene-1,4-dione] |  |  | > 7.30 | > 7.30 | 6.60 to 7.30 |
| O=C1C(Cc2ccc(F)cn2)=C(C2CC2)C(=O)c2ccccc21 [Example 35, 2-cyclopropyl-3-((5-fluoropyridin-2-yl)methyl)naphthalene-1,4-dione] |  |  | > 7.30 | > 7.30 | > 7.30 |
| CC1=C(Cc2ccc(F)cn2)C(=O)c2ccc(F)cc2C1=O [Example 48, 6-fluoro-2-((5-fluoropyridin-2-yl)methyl)-3-methylnaphthalene-1,4-dione] |  |  | > 7.30 | > 7.30 | > 7.30 |
| CC1=C(Cc2ccc(C(F)F)cn2)C(=O)c2ccccc2C1=O [Example 20, 2-((5-(difluoromethyl)pyridin-2-yl)methyl)-3-methylnaphthalene-1,4-dione] |  |  | > 7.30 | > 7.30 | > 7.30 |
| CC1=C(Cc2ccc(C(F)(F)F)cn2)C(=O)c2c(F)cccc2C1=O [Example 51, 5-fluoro-2-methyl-3-((5-(trifluoromethyl)pyridin-2-yl)methyl)naphthalene-1,4-dione] |  |  | > 7.30 | > 7.30 | > 7.30 |
| CCCC1=C(Cc2cc(C)c(F)cn2)C(=O)c2ccccc2C1=O [Example 113, 2-((5-fluoro-4-methylpyridin-2-yl)methyl)-3-propylnaphthalene-1,4-dione] |  |  | > 7.30 | > 7.30 | > 7.30 |
| O=C1C(CCC2COC2)=C(Cc2ccc(C(F)(F)F)cn2)C(=O)c2ccccc21 [Example 33, 2-(2-(oxetan-3-yl)ethyl)-3-((5-(trifluoromethyl)pyridin-2-yl)methyl)naphthalene-1,4-dione] |  |  | > 7.30 | > 7.30 | 6.60 to 7.30 |

Further lines, with some results ahead:

| IC50 at 10 min (CYP3A4) | IC50 (CYP3A4) | SMILES | pEC50 [1] | pEC50 [2] | pEC50 [3] |
| --- | --- | --- | --- | --- | --- |
| ≥ 50 µM |  | CC1=C(Cc2ccc(C(=O)O)cn2)C(=O)c2ccccc2C1=O [Example 99, 6-((3-methyl-1,4-dioxo-1,4-dihydronaphthalen-2-yl)methyl)nicotinic acid] | < 6.00 |  |  |
|  | 8.8 µM | CCN(C(=O)c1ccc(CC2=C(C)C(=O)c3ccccc3C2=O)nc1)C(C)C [Example 102, N-ethyl-N-isopropyl-6-((3-methyl-1,4-dioxo-1,4-dihydronaphthalen-2-yl)methyl)nicotinamide] | > 7.30 |  |  |
| ≥ 50 µM |  | CC1=C(Cc2ccc(C(=O)NC3CCCC3)cn2)C(=O)c2ccccc2C1=O [Example 100, N-cyclopentyl-6-((3-methyl-1,4-dioxo-1,4-dihydronaphthalen-2-yl)methyl)nicotinamide] | 6.60 to 7.30 |  |  |
|  | 23 µM | CC1=C(Cc2ccc(C(N)=O)cn2)C(=O)c2ccccc2C1=O [Example 101, 6-((3-methyl-1,4-dioxo-1,4-dihydronaphthalen-2-yl)methyl)nicotinamide] | > 7.30 |  |  |
|  | 11.9 µM | O=C1C(Cc2ccc(C(F)(F)F)cn2)=C(C2CC2)C(=O)c2ccccc21 [Example 27, 2-cyclopropyl-3-((5-(trifluoromethyl)pyridin-2-yl)methyl)naphthalene-1,4-dione] | > 7.30 |  |  |
|  | 41.5 µM | CC1=C(Cc2ccc(C(=O)NC3(C)CCC3)cn2)C(=O)c2ccccc2C1=O [Example 103, 6-((3-methyl-1,4-dioxo-1,4-dihydronaphthalen-2-yl)methyl)-N-(1-methylcyclobutyl)nicotinamide] | 6.00 to 6.60 |  |  |
|  | 15.6 µM | CCCC1=C(Cc2ccc(C(F)(F)F)cn2)C(=O)c2ccccc2C1=O [Example 109, 2-propyl-3-((5-(trifluoromethyl)pyridin-2-yl)methyl)naphthalene-1,4-dione] | > 7.30 |  |  |
| ≥ 50 µM |  | CC1=C(Cc2ccc(C#N)cn2)C(=O)c2ccccc2C1=O [Example 123, 6-((3-methyl-1,4-dioxo-1,4-dihydronaphthalen-2-yl)methyl)nicotinonitrile] | > 7.30 |  |  |

— patent US20230002324A1, “NAPHTHOQUINONE DERIVATIVES FOR TREATMENT OF OXIDATIVE STRESS DISORDERS” (PTC THERAPEUTICS, INC., priority 2019, published 2023)
